Results published in publication PMC3141655 (BMC Biochemistry, 2011).
“Also recorded” adds a separate entry of the source. Like-named read-outs stand apart in the source and are kept apart here.

How the values were obtained:
[1] = tested on: OASS (StOASS and HiOASS); type: biochemical; conditions: purified enzymes; read-out: Km,OAS
[2] = target: OASS; parameters: method as in PMID 10995767; conditions: from Kext, single-wavelength stopped flow; cited from earlier work
[3] = target: T1, StOASS (O-acetylserine sulfhydrylase) (Salmonella typhimurium, UniProt P0A1E3)
T1 sequence (P0A1E3 whole entry): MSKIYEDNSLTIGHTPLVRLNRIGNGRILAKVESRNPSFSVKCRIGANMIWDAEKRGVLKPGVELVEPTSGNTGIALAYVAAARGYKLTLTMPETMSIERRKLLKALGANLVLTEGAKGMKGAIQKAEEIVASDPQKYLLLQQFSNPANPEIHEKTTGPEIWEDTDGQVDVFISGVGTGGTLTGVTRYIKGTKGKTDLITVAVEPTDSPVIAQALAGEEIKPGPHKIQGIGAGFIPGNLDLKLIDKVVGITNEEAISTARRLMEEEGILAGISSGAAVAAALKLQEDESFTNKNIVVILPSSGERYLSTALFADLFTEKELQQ
Procedure: (§1) Isothermal titration calorimetry (ITC) experiments were performed using a Nano-ITC (TA-Instruments). OASS was dialyzed at 25°C in 20 mM Tris buffer (pH 8.0) and 50 mM NaCl. Buffer solutions were degassed at room temperature prior to use. […] The heat of dilution for each injection was determined using buffer in the cell. Data obtained from the titration of ligands with OASS were analyzed using either a two-sites binding model (eqn 2)(2) [drawing 2]
(§2) Qi^tot is total heat after the i^th injection, V0 is the volume of calorimetric cell, K1 and K2 are the observed equilibrium constants for each site, and ΔH1 and ΔH2 are the corresponding enthalpy changes. Estimates of Kobs and ΔH were obtained by fitting the experimental data to the model and the best-fit parameters were selected based on the lowest Chi-squared values.

[4] = target: HiOASS (O-acetylserine sulfhydrylase) (Haemophilus influenzae, UniProt P45040)
Sequence of HiOASS (O-acetylserine sulfhydrylase) (P45040 whole entry): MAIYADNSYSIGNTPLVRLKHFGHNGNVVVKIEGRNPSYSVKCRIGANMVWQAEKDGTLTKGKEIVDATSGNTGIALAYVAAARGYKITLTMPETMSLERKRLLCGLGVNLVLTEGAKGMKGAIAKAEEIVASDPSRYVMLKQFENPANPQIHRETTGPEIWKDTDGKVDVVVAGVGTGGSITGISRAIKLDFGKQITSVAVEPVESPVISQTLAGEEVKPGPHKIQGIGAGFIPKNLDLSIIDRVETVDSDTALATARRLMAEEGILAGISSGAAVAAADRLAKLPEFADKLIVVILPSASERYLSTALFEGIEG
Procedure: as §1, §2

[5] = target: OASS; parameters: method as in PMID 7547955; conditions: earlier study; read-out: Kd, reported value; cited from earlier work
[6] = target: T1, StOASS (O-acetylserine sulfhydrylase); assay: PLP fluorescence titration of ligands with StOASS; type: binding; parameters: His tag (N); made in house; host or cells: E. coli BL21(DE3), pET28a(+); conditions: for change of OASS PLP fluorescence upon addition of ligand: up to ~1 mM ligand
Procedure: Titrations of ligands with StOASS were examined by monitoring changes in the active site pyridoxal 5'phosphate (PLP) fluorescence of OASS using a Varian spectrofluorometer. The excitation and emission wavelengths for monitoring PLP signal change upon ligand binding were 412 nm and 507 nm respectively. All experiments were done at 23.0 ± 1°C. Slit widths were set to 5 nm for all experiments and PMT voltage was adjusted to get maximum signal for a given protein concentration. Initial readings of both the sample, Fsamp,0 and buffer, Fbuf,0 were taken, with F0 = Fsamp,0-Fbuf,0 defined as the initial fluorescence of the sample. The sample cuvette was then titrated with aliquots of ligands and mixed, equilibrated for 2-5 minutes before measurement. Data points from five such measurements were averaged to obtain Fave,i. The relative fluorescence quenching upon ligand binding is defined as Qobs,i = (F0-Fobs,i)/F0. All measurements were corrected for dilution, and inner filter effects.
Binding of ligands to OASS was analyzed to obtain the equilibrium binding constant, Kobs = [PL]/[P]*[L], using a single or two independent site binding models (eqn 1)(1) [drawing 1]
Where n, number of binding sites, Qobs, observed fluorescence quenching and Qmax, the maximum fluorescence quenching at saturation.

[7] = 25°C, 20 mM Tris pH 8.0, 50 mM NaCl

Row | SMILES | Km [1] [µM] | Kd [2] [mM] | Kd [3] [mM] | contribution of enthalpy to total binding free energy ([3]; 25°C) | apparent binding constant [3, 7] | ΔG [3, 7] [kJ/M] | Kd [4] [mM] | contribution of enthalpy to total binding free energy ([4]; 25°C) | binding constant [4, 7] | enthalpy value [4, 7] [kJ/M] | ΔG [4, 7] [kJ/M] | Kd [5] [mM] | change of OASS PLP fluorescence upon addition of ligand ([6]; pH 8.0 (20 mM Tris, 20 mM NaCl)) | change of OASS PLP fluorescence upon addition of ligand ([6]; pH 9.5 (20 mM Tris, 20 mM NaCl)) | Kd ([6]; pH 9.5, 20 mM Tris, 20 mM NaCl, read-out: Kd (equilibrium dissociation constant)) [mM]
1 | CC(=O)OC[C@H](N)C(=O)O [OAS, O-acetylserine] | 900 to 1400 | ~5.6 | 0.56 | less than 3% | ~ 1.8 ± 0.6 × 10^3 M^-1 | -17.6 | ~0.77 | less than 3% | ~ 1.3 ± 0.4 × 10^3 M^-1 | 0.45 ± 0.3 | -16.9 | – | – | – | –
2 | N[C@@H](CO)C(=O)O [L-serine] | – | – | – | – | – | – | – | – | – | – | – | 4.2 | does not change OASS fluorescence; also recorded: does not change PLP | leads to changes in the OASS fluorescence; also recorded: increases the PLP fluorescence | ~3.7
